Assay results from paper PMC6112376, “Comprehensive Analyses and Prioritization of Tox21 10K Chemicals Affecting Mitochondrial Function by in-Depth Mechanistic Studies” (Environmental Health Perspectives, 2018).
Structures can show the parent of a compound that is named as a salt. Where two headings read alike, the source gives them in different places.

Key:
HepG2 cells [1] = experiment: cells; conditions: Homo sapiens; for IC50: HepG2, read-out: MMP assays IC50 (µM) HepG2; for Emax: HepG2, read-out: MMP assays efficacy (%) HepG2
HepG2 cells [2] = conditions: cited from earlier work
rat primary hepatocytes = experiment: MMP assay in rat primary hepatocytes; conditions: for IC50: Rattus norvegicus, Hepatocyte, read-out: MMP assays IC50 (µM) Rat Hepatocytes; for MMP assays efficacy (%) Rat Hepatocytes / MMP assays IC50 (µM) Rat Hepatocytes: mean ± SD of three experiments
[3] = read-out: MMP assays IC50 (µM) qHTS-HepG2
[4] = read-out: MMP assays IC50 (µM), qHTS-HepG2

Structure (SMILES)	IC50 (HepG2 cells [1]) [µM]	Emax (HepG2 cells [1]) [%]	MMP assays efficacy (%) qHTS-HepG2 (HepG2 cells [2]) [%]	IC50 (HepG2 cells [2]; [3]) [µM]	IC50 (rat primary hepatocytes) [µM]	MMP assays efficacy (%) Rat Hepatocytes (rat primary hepatocytes)	IC50 (HepG2 cells [2]; [4]) [µM]	MMP assays IC50 (µM) Rat Hepatocytes (rat primary hepatocytes)
c1ccc(CCCc2ccncc2)cc1 [4-(3-Phenylpropyl)pyridine]	14.1	46	-63±19	16.6 ± 6.74	13 ± 6.83	-82±23%	–	–
C#C[C@]1(O)CC[C@H]2[C@@H]3CCC4=CCCC[C@@H]4[C@H]3CC[C@@]21C [Lynestrenol]	7.4	55	-104±10	–	–	inactive	16.6 ± 2.15	inactive
CCCCCOC(=O)c1ccc(O)cc1 [Pentylparaben]	14.1	114	-119±16	–	–	inactive	8.74 ± 1.65	inactive
O=c1c2ccccc2[se]n1-c1ccccc1 [Ebselen]	19.4	112	-94±8	23.2 ± 0.93	21.4 ± 5.35	-58±5%	–	–
CCC(=O)OCC(=O)[C@@]1(OC(=O)CC)[C@@H](C)C[C@H]2[C@@H]3CCC4=CC(=O)C=C[C@]4(C)[C@@]3(F)[C@@H](O)C[C@@]21C [Betamethasone dipropionate]	19.4	63	-118±9	25.6 ± 1.67	–	inactive	–	inactive
CSc1nc2cc(Cl)c(Oc3cccc(Cl)c3Cl)cc2[nH]1 [Triclabendazole]	5.48	97	-114±15	–	15.6 ± 2.52	-91±10%	1.84 ± 0.15	–
O=C1CN(/N=C/c2ccc([N+](=O)[O-])o2)C(=O)N1 [Nitrofurantoin]	–	87	-70±6	–	–	–	26.3 ± 6.35	–
COC(=O)C1=C(C)NC(C)=C(C(=O)OC(C)(C)CN(C)CCC(c2ccccc2)c2ccccc2)C1c1cccc([N+](=O)[O-])c1 (centres unmarked) [Lercanidipine hydrochloride]	–	117	-83±7	–	27.5	-77±16%	6.53 ± 0.53	–
COCCOC(=O)C1=C(C)NC(C)=C(C(=O)OC/C=C/c2ccccc2)C1c1cccc([N+](=O)[O-])c1 (centres unmarked) [Cilnidipine]	12.3	109	-104±6	12.5 ± 1.78	14.8 ± 8.07	-75±17%	–	–
CC(C)(C)c1ccc(OC(=O)c2ccccc2O)cc1 [4-tert-Butylphenyl salicylate]	35.5	90	-78±23	28.4 ± 3.64	–	inactive	–	inactive
CNc1ncnc2nc[nH]c12 [(N-6)-Methyladenine]	6.31	56	-65±7	5.98 ± 5.84	–	inactive	–	inactive
Cc1cc(O)c(Cl)c(C)c1Cl [2,4-Dichloro-3,5-dimethylphenol]	8.91	95	-104±10	5.88 ± 4.85	–	inactive	–	inactive
Cc1cc(O)c2c(O)c3c(O)cccc3cc2c1 [Chrysarobin]	30.8	90	-105±7	22.8 ± 3.93	19.3 ± 8.27	-52±8%	–	–
COc1ccc(C(=O)c2ccc(OC)cc2O)c(O)c1	12.6	109	-95±11	7.75 ± 1.8	29.8 ± 13.8	-58±4%	–	–
Cc1ccc2c(Br)cc(Br)c(O)c2n1 [Broquinaldol]	12.6	114	-114±44	26.6 ± 4	38.6 ± 34.6	-87±93%	–	–
Oc1ccc(Sc2ccc(O)cc2)cc1 [4,4'-Thiodiphenol]	25.1	115	-100±12	21.1 ± 2.7	24.7 ± 9.79	-49±9%	–	–
N#CSCSc1nc2ccccc2s1 [2-(Thiocyanomethylthio)benzothiazole]	56.2	73	-85±16	33.1 ± 4.58	30.5 ± 26.4	-136±65%	–	–
Nc1cc(Cl)c(O)c(Cl)c1 [4-Amino-2,6-dichlorophenol]	15.8	120	-97±9	17.2 ± 13.4	29.6 ± 27.8	-57±8%	–	–
